Literature values as cited in patent publication US6034057A, “Peptide inhibitors of fibronectine” (Zeneca Limited, priority 1995, dated 2000).
Bridge positions count the residues as written; N and C are the ends. Ends that are not written are not given here. * marks the point of attachment. Acetyl(1-adamantyl) = O=C(CC12CC3CC(CC(C3)C1)C2)*

Assays:
[1] = system: fibronectin
[2] = system: 120 kDa chymotryptic fragment of fibronectin
[3] = system: fibronectin; remark: listed apart in the source
[4] = target: αIIbβ IIIa (Homo sapiens, UniProt P05106+P08514)
[5] = target: αvβ3 (Homo sapiens, UniProt P05106+P06756)
Sequence of αvβ3 (P06756 31-889 limits assumed): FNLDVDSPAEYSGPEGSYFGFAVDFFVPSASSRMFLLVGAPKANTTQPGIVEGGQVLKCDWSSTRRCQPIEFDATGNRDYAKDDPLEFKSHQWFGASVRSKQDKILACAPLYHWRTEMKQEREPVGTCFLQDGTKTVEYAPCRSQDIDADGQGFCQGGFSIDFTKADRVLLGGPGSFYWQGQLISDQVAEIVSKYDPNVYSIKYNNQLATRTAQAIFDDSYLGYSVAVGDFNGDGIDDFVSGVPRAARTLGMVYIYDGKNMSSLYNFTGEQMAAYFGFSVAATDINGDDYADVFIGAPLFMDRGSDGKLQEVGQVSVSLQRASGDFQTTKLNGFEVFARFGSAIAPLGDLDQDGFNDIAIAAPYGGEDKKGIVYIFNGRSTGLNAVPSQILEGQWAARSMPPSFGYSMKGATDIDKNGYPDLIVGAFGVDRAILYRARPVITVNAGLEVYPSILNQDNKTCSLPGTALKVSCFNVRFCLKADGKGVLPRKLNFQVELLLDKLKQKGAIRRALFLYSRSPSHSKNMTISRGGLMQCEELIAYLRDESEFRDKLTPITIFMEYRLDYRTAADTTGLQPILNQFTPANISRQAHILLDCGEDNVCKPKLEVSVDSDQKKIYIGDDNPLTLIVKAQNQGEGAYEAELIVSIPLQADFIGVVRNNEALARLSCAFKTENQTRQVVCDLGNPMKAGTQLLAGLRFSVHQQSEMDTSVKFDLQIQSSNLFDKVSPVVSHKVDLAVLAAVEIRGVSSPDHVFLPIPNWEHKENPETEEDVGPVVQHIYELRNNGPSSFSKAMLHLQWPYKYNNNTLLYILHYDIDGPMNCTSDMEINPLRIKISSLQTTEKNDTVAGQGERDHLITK
Sequence of αvβ3 (P06756 891-1048 partner limits assumed): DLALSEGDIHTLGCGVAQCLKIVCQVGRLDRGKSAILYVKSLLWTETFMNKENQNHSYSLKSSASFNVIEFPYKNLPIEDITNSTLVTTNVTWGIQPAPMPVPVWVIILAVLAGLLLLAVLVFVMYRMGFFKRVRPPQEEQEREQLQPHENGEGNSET
Sequence of αvβ3 (P05106 27-788): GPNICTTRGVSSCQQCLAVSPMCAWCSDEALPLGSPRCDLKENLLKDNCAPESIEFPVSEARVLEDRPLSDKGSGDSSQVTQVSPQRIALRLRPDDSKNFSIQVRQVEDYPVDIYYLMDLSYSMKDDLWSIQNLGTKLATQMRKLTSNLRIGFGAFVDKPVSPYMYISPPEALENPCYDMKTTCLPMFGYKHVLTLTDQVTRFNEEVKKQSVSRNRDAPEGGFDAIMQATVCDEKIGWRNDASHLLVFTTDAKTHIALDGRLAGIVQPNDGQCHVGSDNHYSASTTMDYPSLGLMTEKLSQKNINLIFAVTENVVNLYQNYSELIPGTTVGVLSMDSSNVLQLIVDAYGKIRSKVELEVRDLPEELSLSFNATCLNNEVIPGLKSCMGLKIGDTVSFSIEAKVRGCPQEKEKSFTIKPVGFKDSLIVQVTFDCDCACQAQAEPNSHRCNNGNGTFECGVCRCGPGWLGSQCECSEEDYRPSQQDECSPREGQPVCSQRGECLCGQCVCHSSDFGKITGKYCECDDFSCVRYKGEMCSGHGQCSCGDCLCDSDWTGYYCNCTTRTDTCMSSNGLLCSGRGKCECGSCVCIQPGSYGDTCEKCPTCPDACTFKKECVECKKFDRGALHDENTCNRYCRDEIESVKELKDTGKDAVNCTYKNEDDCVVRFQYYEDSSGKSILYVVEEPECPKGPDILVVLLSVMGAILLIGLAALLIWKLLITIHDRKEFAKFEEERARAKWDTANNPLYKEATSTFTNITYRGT

Substance	inhibition of leukocyte cell adhesion to fibronectin [1]	inhibition of binding to the 120 kDa chymotryptic fragment of fibronectin [2]	inhibition of binding of Jurkat cells to fibronectin coated plates [3]	inhibition of function in αIIbβ IIIa-dependent assay [4]	inhibition of function in αvβ3-dependent assay [5]
Arg-Cys-Asp-thioproline-Cys	inhibitor of leukocyte cell adhesion to fibronectin	inhibited the binding to the 120 kDa chymotryptic fragment of fibronectin	–	–	–
1-adamantaneacetyl-Cys-Gly-Arg-Gly-Asp-Ser-Pro-Cys ({Acetyl(1-adamantyl)}-CGRGDSPC; disulfide 1-8 (inferred))	–	–	inhibited the binding of Jurkat cells to fibronectin coated plates	inhibited function	inhibited function
